Laboratory results: article PMC10017790 (Nature Communications, 2023)

Experiments:
PaPPAR = tested on: T1, PaPPAR; assay type: biochemical, Petunia axillaris; settings: 2 mM NADPH, 0.1 M Tris-HCl pH 8.0, 1 h
T1 construct: gene PPAR

CaPPAR = assay type: biochemical, Capsicum annuum; settings: 2 mM NADPH, 0.1 M Tris-HCl pH 8.0, 1 h
AbLS = target: T2, AbLS (Atropa belladonna, UniProt A0A3B6XRA5); settings: 1 mM tropine and 1 mM phenyllactate infiltrated; AbUGT1 coexpressed; 24 h
T2 construct: gene LS
T2 sequence (A0A3B6XRA5 34-476 limits assumed): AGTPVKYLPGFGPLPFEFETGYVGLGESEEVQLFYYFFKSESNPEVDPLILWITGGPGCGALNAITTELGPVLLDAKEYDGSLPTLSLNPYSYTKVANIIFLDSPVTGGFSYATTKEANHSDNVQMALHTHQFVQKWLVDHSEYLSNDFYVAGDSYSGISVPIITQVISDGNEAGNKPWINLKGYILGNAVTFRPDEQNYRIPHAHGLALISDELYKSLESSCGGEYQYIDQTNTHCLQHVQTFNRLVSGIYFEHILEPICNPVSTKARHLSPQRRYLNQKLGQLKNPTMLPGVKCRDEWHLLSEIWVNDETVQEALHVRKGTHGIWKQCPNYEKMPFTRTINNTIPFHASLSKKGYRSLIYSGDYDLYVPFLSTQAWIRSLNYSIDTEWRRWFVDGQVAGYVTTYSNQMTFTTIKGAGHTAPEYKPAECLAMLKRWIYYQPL

SlTRI = target: T3, SlTRI (Solanum lycopersicum, UniProt A0A3Q7IM65); assay type: biochemical; settings: 200 uM NADPH, 0.1 M potassium phosphate pH 6.4, 30 C
T3 construct: gene LOC101265293; CDS cloned from cDNA into pET28a; recombinant His-tagged, Ni-NTA purified; Leu159 printed
T3 sequence (A0A3Q7IM65 9-272): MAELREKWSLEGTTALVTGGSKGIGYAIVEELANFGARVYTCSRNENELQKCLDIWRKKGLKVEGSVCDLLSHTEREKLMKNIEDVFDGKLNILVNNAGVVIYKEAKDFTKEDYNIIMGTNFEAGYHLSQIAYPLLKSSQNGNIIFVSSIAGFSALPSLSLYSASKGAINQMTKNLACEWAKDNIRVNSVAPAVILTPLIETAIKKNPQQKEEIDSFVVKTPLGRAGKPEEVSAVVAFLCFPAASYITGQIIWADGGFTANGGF

O=C(O)C(=O)Cc1ccccc1 = assay: purified protein; settings: 2 mM NADPH, 0.1 M Tris-HCl pH 8.0, 1 h

Molecule	Km (O=C(O)C(=O)Cc1ccccc1) [µM]	kcat (O=C(O)C(=O)Cc1ccccc1) [s⁻¹]	also measured
O=C(O)C(=O)Cc1ccccc1 [phenylpyruvic acid]			Km (PaPPAR): 2650 ± 374 µM; Km (CaPPAR): 3020 ± 485 µM
CN1[C@@H]2CC[C@H]1C[C@@H](O)C2 [tropine]			transient expression in N. benthamiana leaves, littorine by UPLC-MS (AbLS): we detected littorine in tobacco leaves expressing DsLS and AbLS
CN1[C@@H]2CC[C@H]1CC(=O)C2 [tropinone]			Km (SlTRI): TRI from tomato also showed TRI activity
AbPPAR (Atropa belladonna)	2085 ± 461.3	0.0098 ± 0.00074	
SlPPAR (Solanum lycopersicum)	1380 ± 130	0.03355 ± 0.00253	
